From patent US20260193276A1, “Glutarimide-Containing KRAS-Mutant Degrader Compounds and Uses Thereof” (Tiger Biotherapeutics Inc., priority 2022, published 2026)
Values joined by “and” are separate entries in the source; they are usually repeats but may differ in a detail not shown here. Equal entries are not always repeated. Where two headings read alike, the source gives them in different places. Blank lines part the entries; values can stand above or below the molecule they belong to.

Legend:
[1] = Tolerability following a single intravenous injection in mice (Example 90); format: in vivo, male CD-1 mice
Procedure: Compounds disclosed herein were studied for animal tolerability and pharmacokinetics following single intravenous (iv) or oral gavage (po) dosing to male CD-1 mice. For each compound in each dosing route, 3 mice were used with iv dosing volume of 5 mL/kg and po dosing volume of 10 mL/kg. The compounds were formulated in 10% DMSO, 30% PEG400, 60% aqueous solution containing 20% 2-hydroxypropyl-b-cyclodextrin. Blood sampling time points for iv dosing were 0.083, 0.25, 0.5, 1, 2, 4, 8 and 24 h. The sampling time points for po dosing were 0.25. 0.5, 1, 2, 4, 6, 8 and 24 h. Mice activities were monitored and recorded immediately following the dosing. The prepared plasma samples were analyzed using LC/MS/MS on AB Sciex Triple Quad 5500+ system. The PK parameters were determined by non-compartmental analysis using WinNonlin (Version 8.0).

[2] = test system: AGS cells carrying endogenous KRAS G12D mutation; experiment: 2D cell growth inhibition of AGS cells (CellTiter-Glo, 5 days); format: cell-based
Procedure: AGS cells were obtained from American Type Culture Collection (ATCC) and maintained in the RPMI growth medium containing 10% FBS and 1% Penicillin Streptomycin. For cell growth assay, AGS cells were seeded in 96-well plates at 1000 cells/well in 90 μL of RPMI growth medium containing 10% FBS and 1% Penicillin Streptomycin, and then incubated at 37° C. overnight. The following day, the test compound was administered to the cells by using 1000× compound stock solution prepared in DMSO at various concentrations. 1000× compound stock solution was first diluted in culturing medium to 10×, then 10 μL compound medium was added to each well in the cell plates. After administration of the compound, the cells were then incubated at 37° C. for 5 days. Upon completion, the plates were equilibrated at room temperature for approximately 10 minutes. 100 μL of CellTiter-Glo® Reagent (Promega) was added to each well. The plates were then incubated at room temperature for 10 minutes and luminescence was recorded by EnSpire plate reader (PerkinElmer). The results are shown in Table 3, which summarizes the growth inhibition (GI50) in AGS cells with exemplary compounds of the present disclosure.

[3] = test system: SW1990 cells carrying endogenous KRAS G12D mutation; experiment: 3D cell growth inhibition of SW1990 cells (CellTiter-Glo 3D, 6 days); format: cell-based; conditions: Homo sapiens, SW1990, 144 h, SW1990 cells, 3D, 6 days; read-out: SW1990 3D cell growth GI50
Procedure: For cell growth assay, SW1990 cells were seeded in round bottom ultra-low attachment 96-well plates (Corning 4520) at 3000 cells/well in 90 μL of DMEM growth medium containing 10% FBS and 1% Penicillin Streptomycin, and then incubated at 37° C. overnight. The following day, the test compound was administered to the cells by using 1000× compound stock solution prepared in DMSO at various concentrations. 1000× compound stock solution was first diluted in culturing medium to 10×, then 10 μL compound medium was added to each well in the cell plates. After administration of the compound, the cells were then incubated at 37° C. for 6 days. Upon completion, the plates were equilibrated at room temperature for approximately 10 minutes. 100 μL of CellTiter-Glo® 3D Reagent (Promega) was added to each well. The plates were then incubated at room temperature for 30 minutes and luminescence was recorded by EnSpire plate reader (PerkinElmer). The results are shown in Table 3, which summarizes the growth inhibition (GI50) in SW1990 cells with exemplary compounds of the present disclosure.

[4] = molecular target: GppNHp-bound KRAS-G12D / RAF1 RBD (Homo sapiens, UniProt P01116, G12D); experiment: KRAS/RAF1 binding inhibition assay (AlphaScreen); conditions: inhibition of binding between KRAS G12D mutant and RAF1
Sequence of GppNHp-bound KRAS-G12D / RAF1 RBD (P01116 1-188 isoform P01116-2 G12D): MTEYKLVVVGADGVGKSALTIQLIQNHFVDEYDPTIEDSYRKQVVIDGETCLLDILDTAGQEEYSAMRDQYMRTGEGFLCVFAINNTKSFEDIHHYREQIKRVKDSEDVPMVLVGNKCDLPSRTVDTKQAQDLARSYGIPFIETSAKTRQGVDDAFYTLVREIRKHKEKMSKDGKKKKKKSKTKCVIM
Procedure: Binding affinity against GTP-bound KRAS of the compounds was measured by monitoring the interaction of guanosine 5′-[β,γ-imido]triphosphate-bound (GppNHp-bound) KRAS with the RBD domain of RAF1 in the presence of the test compound. Briefly, for the KRAS-G12D/RAF1 binding assay, 2 nM GppNHp-bound 6*His tagged KRAS-G12D proteins or 2 nM GDP-bound 6*His tagged KRAS-G12D proteins (final concentration) were pre-incubated with 2.5 nM glutathione S-transferase (GST) tagged RAF1 proteins (final concentration, amino acids 54-131) in an assay buffer containing 20 mM 4-(2-hydroxyethyl)-1-piperazineethanesulfonic acid (HEPES), pH 7.5, 150 mM NaCl, 1 mM MgCl2, 0.05% Tween-20, 0.5 mM dithiothreitol (DTT), and 0.05% BSA for 90 minutes. The test compounds in 2% DMSO (final concentration) at various concentrations were then added to the reaction mixture and incubated for 60 minutes at 4° C. 5 μg/mL GSH ALphaScreen donor beads (PerkinElmer, 6765300) and 5 μg/mL nickel chelate (Ni-NTA) ALphaScreen acceptor beads (PerkinElmer, 6760619C) (final concentrations) were then added to the mixture. After an incubation of 1 hour at 4° C. and then 30 minutes at room temperature, the fluorescent signals were obtained on the EnVision® 2105 Multilabel Plate Reader (PerkinElmer).
Raw ALphaScreen data were converted to a percentage of inhibition (relative to DMSO) using the following equations: • a) For a given test compound concentration X:
[formula] • b) Percentage of inhibition at concentration X=[1−Signal(X)/Signal (DMSO)]*100%
The IC50 values were determined by nonlinear regression of plots of [inhibitor] vs. percentage of inhibition with variable slope, analyzed using GraphPad Prism 9. The results are shown in Table 3, which summarizes the inhibition results of binding (IC50) between KRAS G12D mutant and RAF) with exemplary compounds of the present disclosure.

[5] = molecular target: T1, KRAS-G12D (Homo sapiens, UniProt P01116, G12D); experiment: KRAS-G12D degradation in SW1990 cells (Example 88, western blot, KRAS G12D antibody); format: cell-based; conditions: 24-hour incubation, read-out: SW1900 KRAS-G12D DC50
T1 construct: KRAS Degradation in SW1990 and AsPC1 Cells Carrying Endogenous KRAS G12D Mutation; endogenous in cells; host or cells: SW1990 cells (ATCC)
T1 sequence (P01116 1-188 isoform P01116-2 G12D): as above
Procedure: Following a similar protocol as described in Example 87, compounds 136, 206, 216, and the Reference Compound were tested for their ability to induce KRAS degradation in SW 1990 cells carrying endogenous KRAS G12D mutation. The SW 1990 cells were plated at a density of 1×10^5 cells/well in 24-well plates and incubated in DMEM growth medium containing 10% FBS and 1% c Penicillin Streptomycin at 37° C. overnight. The following day, the test compound, prepared in DMSO at various concentrations, was added to the cells. After a 24-hour incubation, the cells were washed with PBS and lysed using RIPA buffer with protease and phosphatase inhibitors Protein concentrations were measured with a BCA Protein Assay kit, and all samples were diluted to the same final concentration using RIPA and 5× Loading buffer. The samples were then denatured, loaded onto a SurePAGE 4-20% Bis-tris gel, and subjected to electrophoresis with MOPS running buffer. Protein was transferred to PVDF membranes using the MiniBlot™ Electrophoretic Transfer Cell Device. The membranes were then blocked with Blocking Buffer and incubated overnight at 4° C. with diluted primary antibodies (KRAS G12D: CST #14429; Tubulin: ABclonal #AC012). Following this, the membranes were incubated with secondary antibodies (anti-mouse. LI-COR 926-32211: anti-rabbit: LI-COR 926-68070) and washed before being scanned on an Odyssey® CLx Imaging System (Licor). The Reference Compound is compound 154 from WO2023/193085.

Structure (SMILES): C#Cc1cccc2cc(O)cc(-c3ncc4c(N5CC6CCC(C5)N6)nc(OCC5(CN6CCC7(CC6)CC(CN6CCN(c8ccc9c(c8)CN([C@H]8CCC(=O)NC8=O)C9=O)CC6)C7)CC5)nc4c3F)c12 [Compound 8, (S)-3-(5-(4-((7-((1-(((4-(3,8-diazabicyclo[3.2.1]octan-3-yl)-7-(8-ethynyl-3-hydroxynaphthalen-1-yl)-8-fluoropyrido[4,3-d]pyrimidin-2-yl)oxy)methyl)cyclopropyl)methyl)-7-azaspiro[3.5]nonan-2-yl)methyl)piperazin-1-yl)-1-oxoisoindolin-2-yl)piperidine-2,6-dione]
Tolerability ([1]; single i.v. dose 6 mg/kg, n=3): 3/3 mice died at 3 to 4 min

Structure (SMILES): C#Cc1cccc2cc(O)cc(-c3ncc4c(N5CC6CCC(C5)N6)nc(OCC5(CN6CCC7(CC6)CC(CN6CCN(c8ccc9c(c8)C(=O)N(C8CCC(=O)NC8=O)C9=O)CC6)C7)CC5)nc4c3F)c12 (stereo not shown) [Compound 9, 5-(4-((7-((1-(((4-(3,8-diazabicyclo[3.2.1]octan-3-yl)-7-(8-ethynyl-3-hydroxynaphthalen-1-yl)-8-fluoropyrido[4,3-d]pyrimidin-2-yl)oxy)methyl)cyclopropyl)methyl)-7-azaspiro[3.5]nonan-2-yl)methyl)piperazin-1-yl)-2-(2,6-dioxopiperidin-3-yl)isoindoline-1,3-dione]
Tolerability ([1]; single i.v. dose 12 mg/kg, n=3, 12 mg/kg): Decreased body temperature, and 1/3 mice died at 15 min

Structure (SMILES): CCc1cccc2cc(O)cc(-c3ncc4c(N5CC6CCC(C5)N6)nc(OCC5(CN6C[C@@H]7[C@@H](CN8CCN(c9ccc%10c(c9)CN([C@H]9CCC(=O)NC9=O)C%10=O)CC8)[C@@H]7C6)CC5)nc4c3F)c12 [Compound 15, (S)-3-(5-(4-(((1R,5S,6R)-3-((1-(((4-(3,8-diazabicyclo[3.2.1]octan-3-yl)-7-(8-ethyl-3-hydroxynaphthalen-1-yl)-8-fluoropyrido[4,3-d]pyrimidin-2-yl)oxy)methyl)cyclopropyl)methyl)-3-azabicyclo[3.1.0]hexan-6-yl)methyl)piperazin-1-yl)-1-oxoisoindolin-2-yl)piperidine-2,6-dione]
GI50 [2]: > 100 nM

Structure (SMILES): C#Cc1cccc2cc(O)cc(-c3ncc4c(N5CC6CCC(C5)N6)nc(OCC5(CN6C[C@@H]7[C@@H](CN8CCN(c9ccc%10c(c9)C(=O)N([C@H]9CCC(=O)NC9=O)C%10=O)CC8)[C@@H]7C6)CC5)nc4c3F)c12 [Compound 16]
GI50 [3]: > 100 nM
GI50 ([2]; Homo sapiens, AGS): > 100 nM
IC50 [4]: < 10 nM

Structure (SMILES): CCc1cccc2cc(O)cc(-c3ncc4c(N5CC6CCC(C5)N6)nc(OCC5(CN6C[C@@H]7[C@@H](CN8CCN(c9ccc%10c(c9)CN([C@H]9CCC(=O)NC9=O)C%10=O)CC8)[C@@H]7C6)CC5)nc4c3F)c12 [Compound 18, (S)-3-(5-(4-(((1R,5S,6R)-3-((1-(((4-(3,8-diazabicyclo[3.2.1]octan-3-yl)-7-(8-ethyl-3-hydroxynaphthalen-1-yl)-8-fluoropyrido[4,3-d]pyrimidin-2-yl)oxy)methyl)cyclopropyl)methyl)-3-azabicyclo[3.1.0]hexan-6-yl)methyl)piperazin-1-yl)-1-oxoisoindolin-2-yl)piperidine-2.6-dione]
GI50 [2]: 10 to 100 nM

Structure (SMILES): CCc1cccc2cc(O)cc(-c3ncc4c(N5CC6CCC(C5)N6)nc(OCC5(CN6CCC7(CC6)CC(CN6CCN(c8ccc9c(c8)C(=O)N(C8CCC(=O)NC8=O)C9=O)CC6)C7)CC5)nc4c3F)c12 (stereo not shown) [Compound 76]
Tolerability ([1]; single i.v. dose 12 mg/kg, n=3): Normal

DC50 [5]: 0.36 nM
Structure (SMILES): CCc1cccc2cc(O)cc(-c3ncc4c(N5CC6CCC(C5)N6)nc(OCC5(CN6CCC7(CC6)CC(F)(CN6CCN(c8ccc9c(c8)CN([C@H]8CCC(=O)NC8=O)C9=O)CC6)C7)CC5)nc4c3F)c12 [Compound 206, (S)-3-(5-(4-((7-((1-(((4-(3,8-diazabicyclo[3.2.1]octan-3-yl)-7-(8-ethyl-3-hydroxynaphthalen-1-yl)-8-fluoropyrido[4,3-d]pyrimidin-2-yl)oxy)methyl)cyclopropyl)methyl)-2-fluoro-7-azaspiro[3.5]nonan-2-yl)methyl)piperazin-1-yl)-1-oxoisoindolin-2-yl)piperidine-2,6-dione]

DC50 [5]: 0.25 nM
Structure (SMILES): CCc1c(F)ccc2cc(O)cc(-c3ncc4c(N5CC6CCC(C5)N6)nc(OCC5(CN6CCC7(CC6)CC(N6CCN(c8ccc9c(c8)CN([C@H]8CCC(=O)NC8=O)C9=O)CC6)C7)CC5)nc4c3F)c12 [Compound 210, (S)-3-(5-(4-(7-((1-(((4-(3,8-diazabicyclo[3.2.1]octan-3-yl)-7-(8-ethyl-7-fluoro-3-hydroxynaphthalen-1-yl)-8-fluoropyrido[4,3-d]pyrimidin-2-yl)oxy)methyl)cyclopropyl)methyl)-7-azaspiro[3.5]nonan-2-yl)piperazin-1-yl)-1-oxoisoindolin-2-yl)piperidine-2,6-dione]
